Test results published in patent US20240124398A1 (priority 2021, published 2024).
Values joined by “and” are separate entries in the source; they are usually repeats but may differ in a detail not shown here. Equal values may be shown once. “Also recorded” adds a separate entry of the source. Where a name gives a salt, the structure may show the parent alone.

How the values were obtained:
[1] = Solubility of psilocin salts in saline; details: for XRPD of Residue: solid residue after 5 hours in saline; for Solubility (in words): comparison among forms or with freeform
[2] = GVS (hygroscopicity); format: physicochemical
[3] = Static storage for 7 days at 40° C./75% RH (XRPD and HPLC); details: for Static Storage 40° C./75% RH: HPLC: HPLC purity after 7 days at 40° C. and 75% relative humidity; for Static Storage 40° C./75% RH: XRPD: XRPD pattern after 7 days at 40° C. and 75% relative humidity
[4] = Intrinsic dissolution rate (IDR); format: physicochemical; details: for IDR (in words): ranking among TAR Pattern 1, SUC Pattern 3, BEN Pattern 1
[5] = Table 9, saturated solution in saline, 25° C., 5 hours

Compound: CN(C)CCc1c[nH]c2cccc(O)c12.O=C(O)c1ccccc1 [BEN Pattern 1, Psilocin benzoate]
- pH at 5 hrs ([1]; Table 9, saturated solution in saline, 25° C., 5 hours, listed as Psilocin benzoate BEN Pattern 1): 6.8 and 6.9
- XRPD of Residue ([1]; Table 9): BEN Pattern 1
- pH at 5 hrs ([1]; Table 10 (updated), saline, listed as Psilocin benzoate BEN Pattern 1): 6.8 and 6.9
- Solubility (in words) ([1]; saline): substantial increases in solubility compared with the freeform; also recorded: lowest solubility
- Solubility in Saline ([1]; summary Table 4, saline, 25° C., 5 hours): 5000 µg/mL
- GVS hygroscopicity (in words) [2]: Non-hygroscopic
- GVS reversible mass change between 0-90% RH [2]: Reversible 0.25%
- Static Storage 40° C./75% RH: HPLC [3]: HPLC- 99.0%
- Static Storage 40° C./75% RH: XRPD [3]: BEN Pattern 1
- IDR [4]: 0.4 mg/min/cm2
- IDR (in words) [4]: lowest

Compound: CN(C)CCc1c[nH]c2cccc(O)c12.O=S(=O)(O)c1cccc2c(S(=O)(=O)O)cccc12 [Psilocin 1,5-napthalenedisulfonate NAP Pattern 1]
- pH at 5 hrs [1, 5]: 2.0
- XRPD of Residue ([1]; Table 9): NAP Pattern 1
- pH at 5 hrs ([1]; Table 10 (updated), saline): 2.0
- Solubility (in words) ([1]; saline): substantial increases in solubility compared with the freeform
- Static Storage 40° C./75% RH: HPLC [3]: HPLC- 97.2%
- Static Storage 40° C./75% RH: XRPD [3]: NAP Pattern 1

Compound: CN(C)CCc1c[nH]c2cccc(O)c12.O=S(=O)(O)c1cccc2c(S(=O)(=O)O)cccc12 [Psilocin 1,5-napthalenedisulfonate NAP Pattern 2]
- Static Storage 40° C./75% RH: HPLC [3]: HPLC - 99.2%
- Static Storage 40° C./75% RH: XRPD [3]: NAP Pattern 1

Compound: CN(C)CCc1c[nH]c2cccc(O)c12 [Psilocin free base, Psilocin, reference compound]
- pH at 5 hrs [1, 5]: 9.8 and 9.9
- XRPD of Residue ([1]; Table 9): Freeform Pattern 1
- pH at 5 hrs ([1]; Table 10 (updated), saline): 9.8 and 9.9
- IDR [4]: [Freeform = 0.09] mg/min/cm2

Compound: CN(C)CCc1c[nH]c2cccc(O)c12 [Psilocin hydrochloride HCl Pattern 1, Psilocin hydrochloride]
- pH at 5 hrs ([1]; Table 9, saturated solution in saline, 25° C., 5 hours, hydrochloride): 6.0 and 6.1
- pH at 5 hrs ([1]; Table 10 (updated), saline, hydrochloride): 4.0 and 5.4

Compound: CCC(=O)O.CN(C)CCc1c[nH]c2cccc(O)c12 [Psilocin propionate PRO Pattern 1, Psilocin propionate]
- Static Storage 40° C./75% RH: HPLC [3]: HPLC- 99.4%
- Static Storage 40° C./75% RH: XRPD [3]: PRO Pattern

Compound: CN(C)CCc1c[nH]c2cccc(O)c12.O=C(O)c1ccccc1O [Psilocin salicylate SAL Pattern 1, Psilocin salicylate]
- pH at 5 hrs [1, 5]: 4.2
- XRPD of Residue ([1]; Table 9): SAL Pattern 1
- pH at 5 hrs ([1]; Table 10 (updated), saline): 4.2
- Solubility (in words) ([1]; saline): substantial increases in solubility compared with the freeform
- Static Storage 40° C./75% RH: HPLC [3]: HPLC- 99.1%
- Static Storage 40° C./75% RH: XRPD [3]: SAL Pattern

Compound: CN(C)CCc1c[nH]c2cccc(O)c12.O=C(O)c1ccccc1O [Psilocin salicylate SAL Pattern 2, Psilocin salicylate]
- Static Storage 40° C./75% RH: HPLC [3]: HPLC- 99.8%
- Static Storage 40° C./75% RH: XRPD [3]: SAL Pattern 2 +

Compound: Psilocin acetate [Psilocin acetate ACE Pattern 1]
- Static Storage 40° C./75% RH: HPLC [3]: HPLC - 75.2%
- Static Storage 40° C./75% RH: XRPD [3]: ACE Pattern 1 +

Compound: Psilocin acetate [Psilocin acetate ACE Pattern 2]
- Static Storage 40° C./75% RH: HPLC [3]: HPLC- 83.4%
- Static Storage 40° C./75% RH: XRPD [3]: ACE Pattern 3

Compound: Psilocin adipate [Psilocin adipate ADI Pattern 1]
- Static Storage 40° C./75% RH: HPLC [3]: HPLC- 98.4%
- Static Storage 40° C./75% RH: XRPD [3]: ADI Pattern 1 +

Compound: Psilocin adipate [Psilocin adipate ADI Pattern 2]
- Static Storage 40° C./75% RH: HPLC [3]: HPLC- 98.1%
- Static Storage 40° C./75% RH: XRPD [3]: ADI Pattern 3

Compound: Psilocin fumarate [Psilocin fumarate FUM Pattern 1]
- Static Storage 40° C./75% RH: XRPD [3]: FUM Pattern 3; also recorded: FUM Pattern 4

Compound: Psilocin oxalate [Psilocin oxalate OX Pattern 1]
- Static Storage 40° C./75% RH: HPLC [3]: HPLC- 94.4%
- Static Storage 40° C./75% RH: XRPD [3]: OX Pattern 3

Compound: Psilocin oxalate [Psilocin oxalate OX Pattern 2]
- Static Storage 40° C./75% RH: HPLC [3]: HPLC- 97.1%
- Static Storage 40° C./75% RH: XRPD [3]: OX Pattern 3 +

Compound: Psilocin pamoate [Psilocin pamoate PAM Pattern 1]
- Static Storage 40° C./75% RH: HPLC [3]: HPLC- 99.6%
- Static Storage 40° C./75% RH: XRPD [3]: PAM Pattern 1

Compound: Psilocin phosphate [Psilocin phosphate PHO Pattern 1]
- Static Storage 40° C./75% RH: HPLC [3]: HPLC - 93.9%
- Static Storage 40° C./75% RH: XRPD [3]: PHO Pattern 2

Compound: Psilocin succinate
- Static Storage 40° C./75% RH: XRPD [3]: SUC Pattern 5

Compound: Psilocin succinate [SUC Pattern 3]
- GVS hygroscopicity (in words) [2]: hygroscopic
- GVS mass change between 0 and 80% RH ([2]; 0-80% RH): Only 1.0% mass
- IDR [4]: 12.4 mg/min/cm2
- IDR (in words) [4]: highest IDR

Compound: Psilocin tartrate
- Static Storage 40° C./75% RH: XRPD [3]: TAR Pattern 4

Compound: Psilocin tartrate [TAR Pattern 1]
- pH at 5 hrs [1, 5]: 3.4
- pH at 5 hrs ([1]; Table 10 (updated), saline): 3.5
- GVS hygroscopicity (in words) [2]: Slightly Hygroscopic
- GVS reversible mass change between 0-90% RH [2]: Reversible 1.4%
- IDR [4]: 6.9 mg/min/cm2
- IDR (in words) [4]: second highest IDR
